This note sets out measurements from PMC12889028, “Discovery and biological evaluation of novel N-aryl-N′-methylbenzodrazides against Schistosoma japonicum in vitro and in vivo” (Microbiology Spectrum, 2025).

The subject of data set [1] is MCF-7 (human breast cancer) cells. The data set can be described thus: Cytotoxicity MTT assay, MCF-7. The format is cell-based. Here is the method: (§1) The cytotoxicity of compounds 5, 18, and 41 against human liver cancer (HepG2) and human breast cancer (MCF-7) cell lines in vitro was evaluated using the MTT assay, with cisplatin as a positive control. Cells were plated into 96-well plates and incubated in 100 μL of Dulbecco’s modified Eagle’s medium for 24 h. Test compounds at specified final concentrations were then added to the culture medium. After 48 h incubation, MTT dye (10 μL, 0.5 mg/mL) was added, and cells were incubated for an additional 4 h at 37°C in 5% CO2. Formazan crystals were dissolved in 100 μL DMSO per well, and absorbance at 570 nm (OD570) was measured using an ELx800 microplate reader (Bio-Tek, Winooski, VT, USA) with background subtraction. Cytotoxicity was expressed as IC50 (the concentration causing 50% reduction in cell growth compared to untreated controls). Experiments were performed in triplicate, with results presented as mean ± standard deviation.
(In general: Formazan colour is commonly taken as a measure of viable cells.)

The subject of data set [2] is HepG2 (human liver cancer) cells. The data set can be described thus: Cytotoxicity MTT assay, HepG2. The format is cell-based. Here is the method:
as §1

In data set [3] the test system is S. japonicum (Chinese strain). The data set can be described thus: In vivo antischistosomal assay in infected mice (worm burden, worm morphology, liver eggs). Set-up: species or system Schistosoma japonicum in ICR mice. As to conditions: for Worm burden reduction (WBR), Adult: adult stage (from 35 dpi); for Worm burden reduction (WBR), Adult / Worm burden reduction (WBR), Juvenile: 100 mg/kg/day; for Number of worms, Adult: adult stage (treatment from 35 dpi, sacrifice 45 dpi); for Worm burden reduction (WBR), Juvenile: juvenile stage (from 9 dpi); for Number of worms, Juvenile: juvenile stage (treatment from 9 dpi, sacrifice 45 dpi); for Hepatic egg burden, adult-stage treatment / Hepatic egg burden, juvenile-stage treatment: mouse livers at 45 dpi; for Hepatic egg burden, adult-stage treatment: treatment in adult stage; for Hepatic egg burden, juvenile-stage treatment: treatment in juvenile stage. Here is the method: (§2) Lead compounds 5, 18, and 41 (100 mg/kg) were orally administered once daily for 5 consecutive days to infected mice (n = 6/group) during two therapeutic windows: (i) Juvenile stage: treatment initiated at 9 dpi, terminal sacrifice at 45 dpi; (ii) adult stage: treatment initiated at 35 dpi, terminal sacrifice at 45 dpi. Positive controls received praziquantel (PZQ, 100 mg/kg/day ×5 days); negative controls received PBS (0.3 mL). Mice treated at 9 dpi were euthanized 36 days post-treatment; those treated at 35 dpi were euthanized 10 days post-treatment. Adult worms were perfused from the hepatic portal system and mesenteric veins. Parasite burden was quantified by worm enumeration, and worm burden reduction (WBR) was calculated:
WBR (%)=[1−Mean worm count (treated) / Mean worm count (control)]×100% .

The subject of data set [4] is adult worms of S. japonicum (Chinese strain). The data set can be described thus: microbe, parasite or virus in culture. As to conditions: for mortality at 100 µM / LC50: Schistosoma japonicum; for LC50: read-out: LC50 (72 h). Here is the method: S. japonicum cercariae (Chinese strain) were acquired from infected Oncomelania hupensis snails (Wuxi Insect Vector Biology Co., Ltd., China) ([28]). ICR mice (6–8 weeks, 22–25 g; Hunan SJA Laboratory Animal Co., Ltd., China) were percutaneously infected via abdominal exposure to 60 ± 5 cercariae. Adult schistosomes were perfused from the hepatic portal system at 35 dpi using a modified Duvall and DeWitt method ([29]). Animals were housed under controlled conditions (22°C ± 1°C, 12 h light/dark cycle) with ad libitum access to feed and water.
Adult S. japonicum worms isolated from ICR mice were maintained in sterile culture medium (2.0 mL) comprising 77% RPMI 1640 (Lanzhou Bailing Biotech Co., Ltd.; pH 7.5, HEPES-buffered), 20% heat-inactivated fetal bovine serum (Lanzhou Minhai Bio-Engineering Co., Ltd.), and 3% penicillin-streptomycin (100×; 10,000 U/mL penicillin, 10,000 μg/mL streptomycin; New Cell & Molecular Biotech Co., Ltd., China). Incubation was performed at 37°C under 5% CO2. Test compounds were dissolved in DMSO as 0.1 M stock solutions; 2.0 μL aliquots were added to worm-containing media (final concentration: 100 μM in 0.1% DMSO). Negative controls received equivalent volumes of vehicle (0.1% DMSO in RPMI 1640). Parasite viability (motor activity, tegumental integrity, survival) was assessed every 12 h for 72 h using an Olympus CKX53 inverted microscope (n ≥ 3 independent replicates).

A short description of data set [5]: Serum hepatic/renal function profiling of infected, treated mice. The format is in vivo, ICR mice. As to conditions: for Serum GGT: normal range 1–15 U/L; for Serum TBIL: normal range 1.7–15.4 µM; for Serum BUN: normal range 4.9–10.4 mM; for Serum ALT: normal range 28–132 U/L; for Serum AST: normal range 59–247 U/L. Here is the method:
Following maturation, Schistosoma parasites initiate oviposition, with a proportion of eggs migrating via the circulatory system to hepatic tissues. This ectopic deposition induces granuloma formation that subsequently elicits a cascade of immune-mediated pathologies, ultimately compromising hepatic and renal functions in murine models. To evaluate therapeutic efficacy, retro-orbital blood sampling was performed for comprehensive hepatic function profiling, enabling systematic assessment of pharmacological impacts on schistosomiasis-associated organ damage.
as §2, with “calculated: […]” for “calculated:”

The next data set is described as follows: Acute oral toxicity. The class given is in vivo. Particulars: ICR, mouse, in vivo, po, single oral dose, healthy ICR mice. Here is the method:
(§3) ICR mice (n = 10/group), aged 6 to 8 weeks, received a single oral dose of compounds 5, 18, and 41 (732–2,234 mg/kg). LD50 values were determined by Probit analysis (SPSS 26.0).

In a further data set the test system is healthy mice. The data set can be described thus: Acute oral toxicity. The class given is in vivo. As to conditions: single oral dose, healthy ICR mice. Here is the method: as §3
In a further data set the test system is adult S. japonicum worms. The data set can be described thus: SEM examination in vitro of tegumental damage. The class given is cell-based, Schistosoma japonicum. As to conditions: 100 μM. Here is the method: Adult S. japonicum worms (male/female) underwent standardized fixation after in vitro exposure to compounds 5, 18, and 41 over a period of 12 h. First, the samples were immersed in 2.5% glutaraldehyde (prepared with 40 mL 0.2 M phosphate-buffered saline [PBS, pH 7.4], 5 mL 50% glutaraldehyde stock, and 55 mL ultrapure water) at 4°C for 24 h. After triple washes in PBS for 5 min each, worms were rinsed with deionized water for 10 min. The next dehydration sequence included ethanol gradient (50%, 70%, 80%, 90%, 100%; 5 min/step) and tert-butanol gradient (50%, 70%, 90%, 100%; 10 min/step). The worms were freeze-dried, directly sputter-covered with a thin gold layer using a Sputter Coater, and imaged using a scanning electron microscope (Quanta 450).

Where [6] appears, read: mice, oral 100 mg/kg/day for 5 days.
[7] abbreviates: 24 h, read-out: Mortality (%) 24 h, 100 μM, 24 h, adult worms in vitro.
Setting [8] is: 36 h, read-out: Mortality (%) 36 h, 100 μM, 36 h, adult worms in vitro.
[9] abbreviates: 48 h, read-out: Mortality (%) 48 h, 100 μM, 48 h, adult worms in vitro.
The mark [10] stands for this setting: 72 h, read-out: Mortality (%) 72 h, 100 μM, 72 h, adult worms in vitro.
Where [11] appears, read: infected mice treated in adult stage.
[12] abbreviates: infected mice treated in juvenile stage.

Each structure is given as a SMILES string. Read-outs that look alike come from different tables or passages of the source. A value given as a limit tells only on which side of the number the result lay.

As usually defined, the IC50 is the concentration that inhibits the measured activity by half. A lower IC50 goes with inhibition by little substance. In the case of `N.N.[Cl][Pt][Cl]` [Cisplatin, reference compound], the values for the IC50 in data set [1] (48 h incubation) and in data set [2] (48 h incubation) were 1.17 ± 0.13 µM and 3.51 ± 0.14 µM, respectively.
Usually mortality stands for the percentage killed. A word on the LC50: it is the concentration lethal to half of the exposed cells or organisms. As usually defined, the LD50 is the dose at which mortality reaches 50%. Lower therefore signals a more toxic substance. As for `CN(NC(=O)c1ccc(Br)cc1)c1ccc(Cl)c(Cl)c1` [Compound 18], the “Morphology of worms after treatment in vivo, adult stage” value in data set [3] (mice, oral 100 mg/kg/day for 5 days, adult stage) is “making the males thicker and shorter”. Further, in data set [3] (setting [6]), the “Worm burden reduction (WBR), Adult” value came to 20%; the “Number of worms, Adult” value turned out to be 35; the “Morphology of worms after treatment in vivo, juvenile stage” value is reported as “marked stunting of male schistosomes”; the “Worm burden reduction (WBR), Juvenile” value was 40%. Moreover, the “Number of worms, Juvenile” value in data set [3] (setting [6]) was found to be 24. In data set [3], the “Hepatic egg burden, adult-stage treatment” value is on record as “comparable egg burdens to untreated controls” and the “Hepatic egg burden, juvenile-stage treatment” value is listed as “significantly reduced egg burdens”. Besides, the “Mortality (%) 72 h” value in data set [4] (100 μM, 72 h, adult worms in vitro) amounted to 100%. Moreover, in data set [4] (setting [7]), the mortality at 100 µM stood at 10%. The mortality at 100 µM in data set [4] (setting [8]) amounted to 50%. The mortality at 100 µM in data set [4] (setting [9]) was determined as 80%. In addition, in data set [4] (72 h), the LC50 amounted to 83 ± 1.9 µM. Moreover, in data set [4] (setting [10]), the mortality at 100 µM was greater than 90%. Moreover, the IC50 in data set [1] (Homo sapiens, MCF7, 48 h incubation) came to 40.9 ± 2.82 µM. Also, in data set [5] (setting [11]), the “Serum GGT” value worked out at 6.73 ± 9.70 U/L, the “Serum TBIL” value was determined as 18.73 ± 6.05 µM, the “Serum BUN” value is recorded as 8.68 ± 1.22 mM and the “Serum ALT” value came out at 322.33 ± 239.58 U/L. Besides, in data set [5] (setting [11]), the “Serum AST” value is given as 783.67 ± 457.47 U/L. Besides, in data set [5] (setting [12]), the “Serum GGT” value was found to be 0.93 ± 0.81 U/L, the “Serum TBIL” value is 2.98 ± 1.03 µM, the “Serum BUN” value stood at 12.53 ± 1.31 mM and the “Serum ALT” value was 546.00 ± 82.15 U/L. In addition, the “Serum AST” value in data set [5] (setting [12]) is 673.67 ± 153.58 U/L. The Nephrotoxicity result in data set [5] (infected treated mice, judged from BUN) is “transient nephrotoxicity”. This compound also showed an LD50 in “Acute oral toxicity” of 1400 mg/kg. Also, in the data set on healthy mice, the LD50 is reported as >2,000 mg/kg and the LogLD50 was greater than 3.30. In data set [2] (Homo sapiens, HepG2, 48 h incubation), this compound had an IC50 of 22.6 ± 1.48 µM.
In the case of `Cc1ccccc1N(C)NC(=O)c1ccc(Br)cc1` [Compound 37], the mortality at 100 µM in data set [4] (setting [7]), in data set [4] (setting [8]), in data set [4] (setting [9]) and in data set [4] (setting [10]) was 0% in each case.
For `CN(NC(=O)c1ccc(Br)cc1)c1ccccc1F` [Compound 38], the mortality at 100 µM in data set [4] (setting [7]) was found to be 0%; in data set [4] (setting [8]), 0%; in data set [4] (setting [9]) it was 10%; in data set [4] (setting [10]) it was 10%.
Turning to `CN(NC(=O)c1ccc(Br)cc1)c1ccccc1Cl` [Compound 39], the mortality at 100 µM in data set [4] (setting [7]) amounted to 0%; in data set [4] (setting [8]) it was 0%; in data set [4] (setting [9]), 10%; in data set [4] (setting [10]) it was 20%.
Regarding `CN(NC(=O)c1ccc(Br)cc1)c1cc(Cl)cc(Cl)c1` [Compound 40], the mortality at 100 µM in data set [4] (setting [7]) was found to be 0%; in data set [4] (setting [8]), 20%; in data set [4] (setting [9]) it was 70%; in data set [4] (setting [10]), 100%.
On to `O=C(C1CCCCC1)N1CC(=O)N2CCc3ccccc3C2C1` (centres unmarked) [PZQ, praziquantel, reference compound], for which, in data set [3] (setting [6]), the “Worm burden reduction (WBR), Adult” value is 100%; the “Number of worms, Adult” value was 0; the “Morphology of worms after treatment in vivo, juvenile stage” value was “no significant tegumental alterations compared to negative controls”; the “Worm burden reduction (WBR), Juvenile” value is 0%. Besides, the “Number of worms, Juvenile” value in data set [3] (setting [6]) stood at 39. In addition, in data set [3], the “Hepatic egg burden, adult-stage treatment” value is “significantly reduced both ovum dimensions and egg counts”; the “Hepatic egg burden, juvenile-stage treatment” value is reported as “without statistically significant ovicidal efficacy”. For the same compound, in data set [4] (24 h, read-out: Mortality (%) 24 h), the mortality at 100 µM came to 100%. For the same compound, the mortality at 100 µM in data set [4] (36 h, read-out: Mortality (%) 36 h) was 100%. In addition, in data set [4] (48 h, read-out: Mortality (%) 48 h), the mortality at 100 µM was determined as 100%. Further, the median lethal concentration (LC50) in data set [4] (72 h) was determined as 43.8 ± 8.26 µM. In addition, in data set [4] (72 h, read-out: Mortality (%) 72 h), the mortality at 100 µM was 100%. Further, in the data set with adult S. japonicum worms (female worms), the “Tegumental damage (SEM), female adult worms” value is “multifocal vesiculation, ulcerative lesions penetrating the basal lamina, and progressive tegumental corrugation”. The “Tegumental damage (SEM), male adult worms” value with adult S. japonicum worms (male worms) was “extensive tegumental desquamation, complete muscular layer exposure with striation disruption, and ventral sucker collapse”.
